One data set can be described thus: in vitro. The settings on record: human, plasma.
The test system of a further data set is Calu-3. The data set is described as follows: anti-Her2 viability assay, Calu-3 cells (target positive). The data set is classed as cell-based. The settings on record: Calu-3 target positive cells, 6 days; for IC50: Homo sapiens, 144 h, read-out: Calu-3 IC50. The procedure:
(§1) The anti-Her2 viability assay protocol is following.
(§2) 0.1% BSA was added to the Opti-MEM reduced serum media [Gibco, cat #31985-070]. This assay media was used for the dilution of ADC and free drug.
(§3) Cells were seeded in their growth media into 96 well plates (Thermo #136101) one day prior to adding ADCs: 1000/well SKBR3 cells in 80 uL media (target positive cells), 1000/well NCI-N87 cells in 80 uL media (target positive cells), 1000/well Calu-3 in 80 uL media (target positive cells), and 800/well NCI-H1975 cells in 80ul media (target negative cells).
(§4) Serial dilutions of free drug in 100% DMSO (1:4 10 pts starting from 100 uM) were prepared. Serially diluted payload was transferred into Opti-Mem with 0.1% BSA (10 uL into 990 uL media). Serial dilutions of ADCs/isotype controls at 1:4 in Opti-Mem with 0.1% BSA (starting from 5×1000 nM) were prepared. 20ul assay media diluted ADC/isotype conjugates as well as free drug were transferred to above cells. The plates were incubated at 37° C., 5% CO2 for 6 days. Plates were developed by adding 100ul CellTiter Glo 2.0. RT 5-10 min. Plates were read with Envision plate reader. Data was analyzed using Prism. Only inner 60 well are used for the assay. The edge wells were filled with media to prevent dry out.

Data set [1] is described as follows: Mouse whole blood stability test. Type of data set: in vitro ADME. On the procedure: In vitro stability of Linker-Prodrug in mouse whole blood Scheme 15. Metabolism of LP1 (M2980) in whole blood.
Stock solution of test compound was provided in 100% DMSO. The stock solution for each compound was diluted into 500 μM with mixture of 50% acetonitrile, then diluted into mouse blood to achieve a final concentration of 1.0 μM. 1.0 μM of test compound in duplicate was incubated in blood at 37° C. Aliquots of 50 uL sample was collected at 0, 15, 30, 60, 120, 240, 480 min, and 24 hours. Reactions were terminated at various time points (0, 15, 30, 60, 120, 240, 480 min, 24 hours) by adding 200 μL of ice-cold acetonitrile containing internal standard with 1% formic acid and then ultrasound for 30 seconds. Plate was centrifuged (4000 rpm, 15 min). 50 μL of supernatants were transferred into a daughter plate containing 200 μL of H2O in each well. The samples were mixed well and analyzed with UPLC-MS/MS.
A Waters liquid chromatographic system was used. Detection was performed on AP14000 Q-Trap and AP15500 mass spectrometer equipped with TurbolonSpray (ESI) Interface (Applied Biosystems, Concord, Ontario, Canada). Analyst 1.5 and 1.6.2 software packages (Applied Biosystems) were used to control the LC-MS/MS system, as well as for data acquisition and processing.
Chromatographic separation was achieved on the Wates BEH C18 column (50*2.1 mm ID, 1.7 μm). The column temperature was maintained at ambient temperature (25° C.). The flow rate was maintained at 0.6 mL/min and the following mobile phases were used: water (0.1% formic acid, v/v) (phase A) and acetonitrile (0.1% formic acid, v/v) (phase B).
Test compounds (1.0 μM) were incubated in blood at 37° C. in duplicate. Aliquots of 50 uL sample was collected at 0, 15, 30, 60, 120, 240, 480 min, and 24 hours. Reactions were terminated at various time points (0, 15, 30, 60, 120, 240, 480 min, 24 hours by adding 200 μL of ice-cold acetonitrile containing internal standard with 1% formic acid, then ultrasound for 30 seconds. The plate was centrifuged (4000 rpm, 15 min). 50 μL of supernatants were transferred into a daughter plate containing 200 μL of water in each well. Samples were mixed well and analyzed with UPLC-MS/MS.
The % was calculated based on initial 1 uM as 100% and the standard concentration curve.

A further data set has as its system SK-BR-3 cells. Put plainly: SKBR3 cell-based anti-proliferation / viability assay (CellTiter-Glo). Details: species or system human. The settings on record: for EC50: SK-BR-3, read-out: SKBR3 EC50. The procedure: as §1, §2, §3, §4
The cell line used in the anti-proliferation assays was SK-BR-3, a human breast, adenocarcinoma (pleural effusion) cell line; The cells were grown in McCoy's 5a Medium+10% FBS. To run the assay, the cells (80 μl, 1000 cells) were added to each well in a 96-well plate and incubated for 24 hours at 37° C. with CO2. Next, the cells were treated with test compounds (20 μl) at various concentrations in appropriate cell culture medium (total volume, 0.1 mL). The control wells contain cells and the medium but lack the test compounds. The plates were incubated for 144 hours at 37° C. with CO2. CTG reagent was then added to the wells (100 μl). After the plates were shaken for 10 min and then incubated for 10 min at room temperature, paste the clear bottom with white back seal and record luminescence with Envision. The inhibition % was calculated according to the following equation: inhibition %=[1-(assay-blank)/(control-blank)]×100.
For orientation: ATP-based viability assays read luminescence as a measure of living cells.

For the next data set, the system named is NCI-H1975 cells. The data set is described as follows: anti-Her2 viability assay, NCI-H1975 cells (target negative). The settings on record: NCI-H1975 target negative cells, 6 days; for IC50: Homo sapiens, 144 h, read-out: H1975 IC50. Type of data set: cell-based. The procedure:
as §1, §2, §3, §4

For the next data set, the system named is NCI-N87 cells. Put plainly: anti-Her2 viability assay, NCI-N87 cells (target positive). The data set is classed as cell-based. The settings on record: NCI-N87 target positive cells, 6 days; for IC50: Homo sapiens, 144 h, read-out: N87 IC50. The procedure:
as §1, §2, §3, §4

The test system of the next data set is JIMT-1. The data set is described as follows: in vitro cell killing activity, JIMT-1 cells (CellTiter Glo viability). Type of data set: cell-based. The settings on record: JIMT-1 cells; for IC50: Homo sapiens, read-out: JIMT-1 IC50. The procedure: as §4
Setting [2] is: SKBR3 target positive cells, 6 days.
Setting [3] is: whole blood, mouse blood, read-out: Mouse blood stability T1/2 (converted).

Read-outs that look alike come from different tables or passages of the source.

Broadly, the IC50 is the concentration that inhibits the measured activity by half. For orientation: EC50 means the midpoint of the concentration-response curve. With `CC[C@@]1(O)C(=O)OCc2c1cc1n(c2=O)Cc2c-1nc1cc(F)c(C)c3c1c2[C@@H](NC(=O)COCNC(=O)CN)CC3` [P1, 2-Amino-N-[({[(10S,23S)-10-ethyl-18-fluoro-10-hydroxy-19-methyl-5,9-dioxo-8-oxa-4,15-diazahexacyclo[14.7.1.0^2,14.0^4,13.0^6,11.0^20,24]tetracosa-1,6(11),12,14,16,18,20(24)-heptaen-23-yl]carbamoyl}methoxy)methyl]acetamide], the “Human plasma stability % Remaining at 24 h” value is 72.4%. Besides, the half-life in “in vitro” was 49.6 h. Besides, in the data set on Calu-3, the “Calu-3 % Kill” value came out at 93.1% and the 50% inhibitory concentration (IC50) amounted to 6.78 nM. Also, the half-life at 1 μM in data set [1] (mouse, blood) was 0.63 h. Moreover, in [1] (mouse, blood, 1 μM), the “Mouse blood stability % Remaining at 24 h” value worked out at 4.1%. Further, the IC50 with SK-BR-3 cells (Homo sapiens, SK-BR-3, 144 h, SKBR3 target positive cells, 6 days, CellTiter Glo, read-out: SKBR3 IC50) was determined as 5.81 nM. Besides, the EC50 with SK-BR-3 cells (Homo sapiens) is 9.52 nM. Besides, the “SKBR3 % Kill” value in the data set on SK-BR-3 cells (setting [2]) worked out at 96.0%. Further, in the data set on NCI-H1975 cells, the IC50 is 23.9 nM and the “H1975 % Kill” value is listed as 96.4%. Moreover, in the data set with NCI-N87 cells, the IC50 was 9.25 nM and the “N87 % Kill” value is 98.0%. Moreover, in the data set with JIMT-1, the IC50 came out at 26.6 nM and the “JIMT-1 % Kill” value was found to be 89.8%.

Turning to `CC[C@@]1(O)C(=O)OCc2c1cc1n(c2=O)Cc2c-1nc1cc(F)c(C)c3c1c2[C@@H](NC(=O)COCNC(=O)[C@@H](N)CO)CC3` [P2, (2S)-2-amino-N-[({[(10S,23S)-10-ethyl-18-fluoro-10-hydroxy-19-methyl-5,9-dioxo-8-oxa-4,15-diazahexacyclo[14.7.1.0^2,14.0^4,13.0^6,11.0^20,24]tetracosa-1,6(11),12,14,16,18,20(24)-heptaen-23-yl]carbamoyl}methoxy)methyl]-3-hydroxypropanamide], the “Human plasma stability % Remaining at 24 h” value is on record as 80.4%. For the same compound, the half-life in the data set “in vitro” was 65.4 h. Moreover, in the data set with Calu-3, the “Calu-3 % Kill” value is reported as 93.2% and the IC50 stood at 5.68 nM. Besides, in data set [1] (mouse, blood), the half-life at 1 μM was 2.5 h. The “Mouse blood stability % Remaining at 24 h” value in data set [1] (mouse, blood, 1 μM) is 34.1%. For the same compound, the EC50 in the data set with SK-BR-3 cells (Homo sapiens) was 5.89 nM. Moreover, the “SKBR3 % Kill” value with SK-BR-3 cells (setting [2]) was 97.0%. For the same compound, in the data set with NCI-H1975 cells, the IC50 came out at 19.9 nM and the “H1975 % Kill” value was determined as 98.0%. In the data set with NCI-N87 cells, the concentration for half-maximal inhibition (IC50) was 8.93 nM and the “N87 % Kill” value came out at 98.4%. In the data set with JIMT-1, the IC50 was found to be 23.8 nM and the “JIMT-1 % Kill” value came to 92.7%.

As for `CC[C@@]1(O)C(=O)OCc2c1cc1n(c2=O)Cc2c-1nc1cc(F)c(C)c3c1c2[C@@H](NC(=O)COCNC(=O)[C@@H](N)CCC(N)=O)CC3` [P3, (2S)-2-amino-N-[({[(10S,23S)-10-ethyl-18-fluoro-10-hydroxy-19-methyl-5,9-dioxo-8-oxa-4,15-diazahexacyclo[14.7.1.0^2,14.0^4,13.0^6,11.0^20,24]tetracosa-1,6(11),12,14,16,18,20(24)-heptaen-23-yl]carbamoyl}methoxy)methyl]pentanediamide], the “Human plasma stability % Remaining at 24 h” value was found to be 48.9%. Besides, the half-life in “in vitro” is 24.1 h. In the data set on Calu-3, the “Calu-3 % Kill” value came out at 90.7% and the concentration for half-maximal inhibition (IC50) was 15.9 nM. Moreover, the half-life at 1 μM in data set [1] (mouse, blood) was 1 h. Besides, the “Mouse blood stability % Remaining at 24 h” value in data set [1] (mouse, blood, 1 μM) was 6.5%. For the same compound, the EC50 with SK-BR-3 cells (Homo sapiens) amounted to 11.6 nM. In the data set with SK-BR-3 cells (setting [2]), the “SKBR3 % Kill” value is 94.3%. Moreover, in the data set on NCI-H1975 cells, the IC50 came out at 54.5 nM and the “H1975 % Kill” value is recorded as 88.5%. Further, in the data set on NCI-N87 cells, the IC50 was determined as 30.4 nM and the “N87 % Kill” value is listed as 95.5%. Also, in the data set with JIMT-1, the IC50 turned out to be 88.6 nM and the “JIMT-1 % Kill” value turned out to be 81.3%.

Take `CC[C@@]1(O)C(=O)OCc2c1cc1n(c2=O)Cc2c-1nc1cc(F)c(C)c3c1c2[C@@H](NC(=O)COCNC(=O)[C@@H](N)CCC(=O)O)CC3` [P4, (4S)-4-amino-4-{[({[(10S,23S)-10-ethyl-18-fluoro-10-hydroxy-19-methyl-5,9-dioxo-8-oxa-4,15-diazahexacyclo[14.7.1.0^2,14.0^4,13.0^6,11.0^20,24]tetracosa-1,6(11),12,14,16,18,20(24)-heptaen-23-yl]carbamoyl}methoxy)methyl]carbamoyl}butanoic acid]: in the data set with Calu-3, the “Calu-3 % Kill” value was found to be 93.7% and the IC50 was found to be 5.67 nM. Moreover, in data set [1] (mouse blood), the “Mouse blood stability % Remaining at 24 h” value was 66.1%. For the same compound, the half-life at 1 μM in data set [1] (setting [3]) was 9.2 h. In “Human plasma stability”, the half-life was 107 h and the “Human plasma stability % Remaining at 24 h” value turned out to be 90.4%. In addition, the EC50 in the data set with SK-BR-3 cells (Homo sapiens) came out at 6.63 nM. Also, the “SKBR3 % Kill” value in the data set with SK-BR-3 cells (setting [2]) is given as 96.6%. Also, in the data set on NCI-H1975 cells, the IC50 amounted to 24.1 nM and the “H1975 % Kill” value is listed as 96.8%. Moreover, in the data set on NCI-N87 cells, the IC50 was 9.84 nM and the “N87 % Kill” value is reported as 97.7%. In the data set on JIMT-1, the 50% inhibitory concentration (IC50) turned out to be 20.7 nM and the “JIMT-1 % Kill” value amounted to 92.0%.

`CC[C@@]1(O)C(=O)OCc2c1cc1n(c2=O)Cc2c-1nc1cc(F)c(C)c3c1c2[C@@H](NC(=O)COCNC(=O)[C@@H](N)Cc1ccccc1)CC3` [P7, (2S)-2-amino-N-[({[(10S,23S)-10-ethyl-18-fluoro-10-hydroxy-19-methyl-5,9-dioxo-8-oxa-4,15-diazahexacyclo[14.7.1.0^2,14.0^4,13.0^6,11.0^20,24]tetracosa-1,6(11),12,14,16,18,20(24)-heptaen-23-yl]carbamoyl}methoxy)methyl]-3-phenylpropanamide]: in the data set on Calu-3, the “Calu-3 % Kill” value was determined as 93.7% and the IC50 was determined as 3.32 nM. Besides, the “Mouse blood stability % Remaining at 24 h” value in data set [1] (mouse blood) came out at 6.3%. Besides, in data set [1] (setting [3]), the half-life at 1 μM is 0.2 h. In “Human plasma stability”, the half-life is 24.4 h and the “Human plasma stability % Remaining at 24 h” value was found to be 51.3%. Also, the EC50 in the data set with SK-BR-3 cells (Homo sapiens) was determined as 1.98 nM. Besides, the “SKBR3 % Kill” value in the data set with SK-BR-3 cells (setting [2]) was 97.0%. In the data set with NCI-H1975 cells, the IC50 is 8.96 nM and the “H1975 % Kill” value was 98.8%. In addition, in the data set on NCI-N87 cells, the IC50 amounted to 4.41 nM. For the same compound, in the data set on JIMT-1, the IC50 worked out at 13.2 nM and the “JIMT-1 % Kill” value came to 93.4%.
